One series addresses T1, 5-HT1A receptor (Homo sapiens, UniProt P08908).
T1 sequence (P08908 1-422): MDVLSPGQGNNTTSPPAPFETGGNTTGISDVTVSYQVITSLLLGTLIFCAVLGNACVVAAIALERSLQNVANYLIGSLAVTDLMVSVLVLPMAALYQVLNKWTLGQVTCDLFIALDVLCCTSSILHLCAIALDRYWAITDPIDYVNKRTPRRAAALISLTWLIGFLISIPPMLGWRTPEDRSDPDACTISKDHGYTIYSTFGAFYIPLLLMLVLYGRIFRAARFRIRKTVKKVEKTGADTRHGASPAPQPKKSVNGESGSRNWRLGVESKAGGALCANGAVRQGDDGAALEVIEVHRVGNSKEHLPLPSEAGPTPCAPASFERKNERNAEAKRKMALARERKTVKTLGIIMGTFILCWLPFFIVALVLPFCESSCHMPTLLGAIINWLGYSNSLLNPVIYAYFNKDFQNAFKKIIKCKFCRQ
Kind of series: Radioligand competition assay. Type of series: binding. The settings on record: 0.5 nM [3H]8-hydroxy-DPAT; mean ± SD of three independent replicates.

The nature of series [1]: In vitro metabolic stability in human liver microsomes. Type of series: in vitro ADME. To be noted: 5 μM compound, 400 μg/ml HLM, 37 °C, timepoints 0, 30, 60 min; result in words.
The test system of another series is mice. The settings on record: result in words; cited from earlier work.
For series [2], the system named is RmNMT. Type of series: biochemical, Rhinella marina. To be noted: for Higher conversion of substrate by RmNMT compared with OcINMT: from Table 1 activities.
The target of a further series is 5-HT2A receptor (Homo sapiens, UniProt P28223). The settings on record: read-out: 5-HT2A Ki; cited from earlier work.
The next series deals with OcINMT. The settings on record: cited from earlier work.
A further series has as its system MAO-A. The settings on record: rat liver mitochondria; result in words; cited from earlier work.
The test system of another series is HsINMT. The settings on record: read-out: Km (HsINMT); cited from earlier work.
The conditions of series [3]: radiolabeled compound injected into rabbits; result in words; cited from earlier work.
The subject of series [4] is RmNMT. It is filed as biochemical, Rhinella marina. The settings on record: 30 °C, 10 min.
[5] abbreviates: standard in vitro assay, 1 h, 37 °C, mean ± SD, triplicate.

Chain of 5-HT2A receptor (P28223 whole entry): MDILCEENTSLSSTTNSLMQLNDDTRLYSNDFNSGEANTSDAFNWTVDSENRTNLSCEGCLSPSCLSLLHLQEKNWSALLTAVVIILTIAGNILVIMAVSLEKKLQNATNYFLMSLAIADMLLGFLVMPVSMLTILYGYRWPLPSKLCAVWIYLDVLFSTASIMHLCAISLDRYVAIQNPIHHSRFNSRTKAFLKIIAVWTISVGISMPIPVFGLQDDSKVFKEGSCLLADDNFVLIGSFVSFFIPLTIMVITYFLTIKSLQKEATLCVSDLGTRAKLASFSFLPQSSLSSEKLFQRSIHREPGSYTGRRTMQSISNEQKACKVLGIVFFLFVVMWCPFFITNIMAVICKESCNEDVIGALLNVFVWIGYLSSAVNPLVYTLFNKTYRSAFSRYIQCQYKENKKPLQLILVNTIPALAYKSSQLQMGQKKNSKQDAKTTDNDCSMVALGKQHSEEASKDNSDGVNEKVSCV

Turning to `Cc1[nH]c2ccccc2c1CCN` [2-Methyltryptamine], the “5-HT1A Ki” value on 5-HT1A receptor is listed as “micromolar levels”. For the same compound, in [1], the “Metabolic stability during exposure to human liver microsome” value is “showed greater stability”.
Take `NCCc1c[nH]c2cccc(O)c12` [4-Hydroxytryptamine]: in the series with mice, the Head-twitch response result was “does not induce head-twitch response”.
As to `NCCc1c[nH]c2ccc(O)cc12` [5-Hydroxytryptamine (serotonin), 5-Hydroxytryptamine], the “RmNMT enzyme activity, product Bufotenin” value with RmNMT [2] was 4.65 ± 0.112.
As to `CN(C)CCc1c[nH]c2cc(F)cc(O)c12` [6-fluoro-psilocin], the Ki on 5-HT2A receptor was 0.013 µM.
On to `COc1ccc2c(CCN(C)C)c[nH]c2c1` [6-methoxy-DMT], for which, on 5-HT2A receptor, the inhibition constant Ki was 7.3 µM.
With `CN(C)CCc1c[nH]c2ccc(O)cc12` [Bufotenin, 5-hydroxy-DMT], in [1], the “Metabolic stability during exposure to human liver microsome” value is “degraded faster than psilocin”.
As for `CN(C)CCc1c[nH]c2ccccc12` [DMT, N,N-dimethyltryptamine], the “Inhibition of OcINMT by its product” value in the series on OcINMT (result in words) is recorded as “noncompetitively inhibited”. The inhibitory constant (Ki) at 5-HT2A receptor was 1.2 µM. Also, in the series with MAO-A, the “Activity as MAO-A substrate” value is “could not be detected”.
Consider `CNCCc1c[nH]c2ccccc12` [N-Methyltryptamine], for which the “Activity as MAO-A substrate” value with MAO-A was “substrates of MAO-A”. Also, the “Higher conversion of substrate by RmNMT compared with OcINMT” value in the series with RmNMT [2] is recorded as 27 fold. Further, in the series on RmNMT [2] (setting [5]), the “RmNMT enzyme activity, product DMT” value is listed as 10.44 ± 0.46.
In the case of `NCCc1c[nH]c2ccccc12` [Tryptamine], the Michaelis constant (Km) is 270 µM with OcINMT (read-out: Km (OcINMT)) and 2920 µM with HsINMT. In addition, the “Activity as MAO-A substrate” value in the series on MAO-A is listed as “substrates of MAO-A”. Besides, in the series with RmNMT [2], the “Higher conversion of substrate by RmNMT compared with OcINMT” value is recorded as 18 fold. Further, in the series with RmNMT [2] (setting [5]), the “RmNMT enzyme activity, product N-Methyltryptamine” value stood at 3.51 ± 0.079. Further, the “Persistence in brain tissue” value in series [3] was “disappeared within minutes”. The “kcat (RmNMT)” value in the series on RmNMT [4] was 0.00052 s⁻¹.

One may read the Ki as a dissociation constant, usually derived from enzyme kinetics or from competition with a known ligand. Broadly, the Km is the substrate concentration at which the rate is half of its maximum.
